In patent US9212138B2, “Use of derivatives of indoles for the treatment of cancer” (CENTRE NATIONAL DE LA RECHERCHE SCIENTIFIQUE, priority 2009, dated 2015):

Tests used:
[1] = Activity of side products, test not stated; conditions: side product of the synthesis
MKLP-2 (RabK6) = biological target: T1, MKLP-2 (RabK6) (Homo sapiens, UniProt O95235, S2A); test: biochemical
T1 construct: Expression clones for MKLP-21-519 (coding for residues 1 to 519) were obtained as follows; His-tag; made in house; host or cells: E. coli BL21(DE3)
T1 sequence (O95235 1-519 S2A limits assumed): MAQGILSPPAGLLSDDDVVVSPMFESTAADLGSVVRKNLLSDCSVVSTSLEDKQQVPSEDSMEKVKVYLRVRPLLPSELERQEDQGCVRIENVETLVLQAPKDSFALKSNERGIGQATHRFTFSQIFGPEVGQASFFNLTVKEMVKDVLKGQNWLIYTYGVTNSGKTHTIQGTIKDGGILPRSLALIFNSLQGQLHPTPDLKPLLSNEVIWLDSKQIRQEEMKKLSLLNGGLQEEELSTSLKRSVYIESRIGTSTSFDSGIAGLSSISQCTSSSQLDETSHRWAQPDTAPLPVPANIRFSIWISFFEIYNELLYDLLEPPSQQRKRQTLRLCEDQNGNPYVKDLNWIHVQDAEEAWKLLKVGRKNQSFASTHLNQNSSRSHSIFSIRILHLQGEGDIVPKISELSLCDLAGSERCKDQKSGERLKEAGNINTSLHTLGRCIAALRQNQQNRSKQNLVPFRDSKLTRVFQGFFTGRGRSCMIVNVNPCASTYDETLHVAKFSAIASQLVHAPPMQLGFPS
Experimental: All experiments were performed at room temperature using a 96-well Sunrise photometer (Tecan, Maennedorf, Switzerland) at a final volume of 100 μl per well.
Steady-state ATPase rates were measured using the pyruvate kinase/lactate dehydrogenase-linked assay in buffer A25A (25 mM potassium ACES, pH 6.9, 2 mM MgAc2, 2 mM Na-EGTA, 0.1 mM Na-EDTA, 1 mM β-mercaptoethanol) supplemented with 1 mM MgATP; 2 mM PEP; 0.25 mM NADH; 3-10 μg/ml pyruvate kinase; 3 μg/ml lactate dehydrogenase and 8 μM taxol.
The data were analyzed using Kaleidagraph 3.0 (Synergy Software, Reading, Pa.) and Microsoft Excel to obtain the kinetic variables.
When necessary, the inhibitor concentrations were adapted depending on the initial IC50 value. Experiments were performed in triplicate and averaged data points are shown with error bars±SD.

In the case of `NC(=O)/C(=C/c1cccnc1)c1c[nH]c2ccccc12`, the activity [1] is reported as “no activity”.

With `CCOc1ccncc1/C=C(\C#N)c1c[nH]c2ccc(OC)cc12` [Example 47b] the activity [1] was “no activity”.

`N#C/C(=C\c1cccc(C#N)c1)c1c[nH]c2ccc(O)cc12` [Example 55, (Z)-3-[2-cyano-2-(5-hydroxy-1H-indol-3-yl)-vinyl]-benzonitrile] showed an IC50 (MKLP-2 (RabK6)) of under 5 µM.

`NC(=O)/C(=C\c1cccnc1)c1c[nH]c2ccccc12` [Example 56, (Z)-2-(1H-indol-3-yl)-3-pyridin-3-yl-acrylamide] gave an IC50 (MKLP-2 (RabK6)) of over 50 µM.

`C#C/C(=C\c1cccnc1)c1c[nH]c2ccc(OC)cc12` [Example 58, (E)-5-methoxy-3-(1-(pyridin-3-yl)but-1-en-3-yn-2-yl)-1H-indole] gave an IC50 (MKLP-2 (RabK6)) of 5 to 10 µM.

`COc1ccc2[nH]cc(/C(C#N)=C(\C)c3cccnc3)c2c1` [Example 60, (Z)-2-(5-methoxy-1H-indol-3-yl)-3-(pyridin-3-yl)-but-2-enenitrile] gave an IC50 (MKLP-2 (RabK6)) of under 5 µM.

For `N#C/C(=N\c1cccnc1)c1c[nH]c2ccccc12` [Example 61, (Z)-(1H-indol-3-yl)-(pyridin-3-ylimino)-acetonitrile], the IC50 (MKLP-2 (RabK6)) was under 5 µM.
